Values quoted from earlier work as cited in patent publication US9060937B2, “Pharmaceutical compositions” (priority 2006, dated 2015).

Settings: in water

- solubility: < 0.1 µg/mL
SMILES: CCCCC1=NC2(CCCC2)C(=O)N1Cc1ccc(-c2ccccc2-c2nnn[nH]2)cc1 [irbesartan, Irbesartan]
